Test results published in ChEMBL document CHEMBL1938371, “Discovery of AZD2932, a new Quinazoline Ether Inhibitor with high affinity for VEGFR-2 and PDGFR tyrosine kinases” (Bioorg Med Chem Lett, 2012).
Activity calls are given as the source filed them. No cut-off for these calls is given here.

How the values were obtained:
[1] = biological target: Vascular endothelial growth factor receptor 2 (Homo sapiens) (UniProt P35968); assay: Inhibition of VEGFR2 phosphorylation by cell based assay
[2] = biological target: Platelet-derived growth factor receptor beta (Homo sapiens, UniProt P09619); assay: Inhibition of PDGFRbeta phosphorylation by cell based assay
Platelet-derived growth factor receptor beta, sequence (P09619 whole entry): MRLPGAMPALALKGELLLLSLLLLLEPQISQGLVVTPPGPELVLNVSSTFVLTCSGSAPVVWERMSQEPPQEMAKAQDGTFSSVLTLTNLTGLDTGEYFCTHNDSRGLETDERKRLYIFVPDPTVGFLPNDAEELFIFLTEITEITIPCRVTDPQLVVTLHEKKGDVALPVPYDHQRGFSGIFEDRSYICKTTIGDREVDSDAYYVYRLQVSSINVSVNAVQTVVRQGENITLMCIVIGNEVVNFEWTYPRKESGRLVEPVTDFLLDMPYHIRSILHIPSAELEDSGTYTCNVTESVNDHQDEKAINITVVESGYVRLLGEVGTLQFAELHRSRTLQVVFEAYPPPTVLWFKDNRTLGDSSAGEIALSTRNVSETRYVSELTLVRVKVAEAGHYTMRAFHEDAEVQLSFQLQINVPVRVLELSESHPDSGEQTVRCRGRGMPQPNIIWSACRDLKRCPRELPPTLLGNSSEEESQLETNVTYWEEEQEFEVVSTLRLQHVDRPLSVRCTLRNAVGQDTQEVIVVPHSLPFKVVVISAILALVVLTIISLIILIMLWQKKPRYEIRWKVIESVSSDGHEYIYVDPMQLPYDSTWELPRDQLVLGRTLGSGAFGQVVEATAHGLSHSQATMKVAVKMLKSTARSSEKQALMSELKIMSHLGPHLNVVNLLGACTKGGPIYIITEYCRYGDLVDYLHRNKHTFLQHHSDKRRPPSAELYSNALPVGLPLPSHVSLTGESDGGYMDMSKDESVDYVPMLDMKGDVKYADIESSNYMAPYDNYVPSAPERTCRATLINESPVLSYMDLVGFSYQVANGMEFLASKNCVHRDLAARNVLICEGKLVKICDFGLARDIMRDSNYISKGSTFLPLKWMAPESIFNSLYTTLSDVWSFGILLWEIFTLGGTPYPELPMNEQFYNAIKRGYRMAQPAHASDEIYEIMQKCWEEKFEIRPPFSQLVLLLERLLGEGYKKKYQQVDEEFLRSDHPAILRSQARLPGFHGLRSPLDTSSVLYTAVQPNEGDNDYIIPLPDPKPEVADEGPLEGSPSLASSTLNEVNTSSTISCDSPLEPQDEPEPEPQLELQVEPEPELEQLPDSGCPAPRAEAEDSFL

[3] = biological target: Platelet-derived growth factor receptor alpha (Homo sapiens) (UniProt P16234); assay: Inhibition of PDGFRalpha phosphorylation by cell based assay
Platelet-derived growth factor receptor alpha (Homo sapiens), sequence (P16234 whole entry): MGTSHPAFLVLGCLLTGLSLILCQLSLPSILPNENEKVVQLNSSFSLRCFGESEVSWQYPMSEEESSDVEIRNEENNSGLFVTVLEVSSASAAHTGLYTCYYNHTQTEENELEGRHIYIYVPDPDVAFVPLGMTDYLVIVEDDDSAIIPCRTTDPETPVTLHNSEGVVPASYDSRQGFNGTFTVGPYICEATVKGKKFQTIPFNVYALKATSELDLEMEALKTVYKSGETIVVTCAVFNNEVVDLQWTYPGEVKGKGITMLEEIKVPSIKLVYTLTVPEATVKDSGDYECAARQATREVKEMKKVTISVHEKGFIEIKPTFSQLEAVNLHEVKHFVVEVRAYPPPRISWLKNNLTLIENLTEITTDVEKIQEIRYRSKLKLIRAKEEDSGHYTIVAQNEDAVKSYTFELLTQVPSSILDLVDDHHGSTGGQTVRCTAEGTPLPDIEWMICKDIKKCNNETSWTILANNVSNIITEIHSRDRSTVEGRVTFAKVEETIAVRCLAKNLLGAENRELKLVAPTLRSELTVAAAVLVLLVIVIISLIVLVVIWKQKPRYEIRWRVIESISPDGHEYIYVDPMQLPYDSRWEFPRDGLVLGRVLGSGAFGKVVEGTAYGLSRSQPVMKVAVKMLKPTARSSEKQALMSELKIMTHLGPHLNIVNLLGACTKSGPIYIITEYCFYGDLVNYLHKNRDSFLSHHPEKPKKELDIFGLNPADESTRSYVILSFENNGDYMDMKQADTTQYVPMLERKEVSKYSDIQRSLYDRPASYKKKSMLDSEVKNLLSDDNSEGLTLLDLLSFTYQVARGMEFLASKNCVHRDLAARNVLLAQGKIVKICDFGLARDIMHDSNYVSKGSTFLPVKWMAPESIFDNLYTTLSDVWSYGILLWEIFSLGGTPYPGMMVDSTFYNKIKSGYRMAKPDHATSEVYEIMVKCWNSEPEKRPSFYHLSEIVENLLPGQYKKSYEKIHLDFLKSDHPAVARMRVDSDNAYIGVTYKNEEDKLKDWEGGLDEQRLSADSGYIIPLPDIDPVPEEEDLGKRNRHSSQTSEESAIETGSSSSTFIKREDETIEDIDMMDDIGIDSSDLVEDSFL

[4] = biological target: T1, Receptor-type tyrosine-protein kinase FLT3 (Homo sapiens, UniProt P36888); assay: Inhibition of FLT3 phosphorylation by cell based assay
T1 sequence (P36888 whole entry): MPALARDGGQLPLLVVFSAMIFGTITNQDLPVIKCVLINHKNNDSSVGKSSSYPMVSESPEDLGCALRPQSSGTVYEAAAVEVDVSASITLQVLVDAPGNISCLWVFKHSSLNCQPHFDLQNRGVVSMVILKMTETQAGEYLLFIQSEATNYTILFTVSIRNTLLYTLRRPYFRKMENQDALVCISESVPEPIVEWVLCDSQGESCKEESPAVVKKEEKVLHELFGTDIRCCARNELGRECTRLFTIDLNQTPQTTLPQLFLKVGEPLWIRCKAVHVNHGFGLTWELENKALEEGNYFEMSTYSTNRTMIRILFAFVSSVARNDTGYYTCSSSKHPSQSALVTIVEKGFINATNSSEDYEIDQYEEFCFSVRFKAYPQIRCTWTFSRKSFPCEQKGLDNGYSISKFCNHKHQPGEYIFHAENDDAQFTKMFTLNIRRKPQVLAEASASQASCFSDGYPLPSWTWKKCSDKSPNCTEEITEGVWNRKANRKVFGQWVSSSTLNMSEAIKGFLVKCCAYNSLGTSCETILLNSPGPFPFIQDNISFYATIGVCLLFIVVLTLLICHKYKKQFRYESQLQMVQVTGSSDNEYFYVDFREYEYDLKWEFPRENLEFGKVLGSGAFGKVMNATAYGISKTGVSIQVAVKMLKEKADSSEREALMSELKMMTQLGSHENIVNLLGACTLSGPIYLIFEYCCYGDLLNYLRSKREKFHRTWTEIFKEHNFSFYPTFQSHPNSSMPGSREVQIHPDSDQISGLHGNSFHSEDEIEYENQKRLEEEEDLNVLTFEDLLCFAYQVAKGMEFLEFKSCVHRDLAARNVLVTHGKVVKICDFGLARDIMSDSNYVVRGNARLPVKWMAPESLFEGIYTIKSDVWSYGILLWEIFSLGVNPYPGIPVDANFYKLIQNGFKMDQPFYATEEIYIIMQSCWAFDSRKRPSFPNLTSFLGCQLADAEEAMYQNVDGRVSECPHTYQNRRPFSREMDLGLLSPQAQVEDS

[5] = biological target: Macrophage colony-stimulating factor 1 receptor (Homo sapiens, UniProt P07333); assay: Inhibition of CSF1R phosphorylation by cell based assay
Macrophage colony-stimulating factor 1 receptor, sequence (P07333 whole entry): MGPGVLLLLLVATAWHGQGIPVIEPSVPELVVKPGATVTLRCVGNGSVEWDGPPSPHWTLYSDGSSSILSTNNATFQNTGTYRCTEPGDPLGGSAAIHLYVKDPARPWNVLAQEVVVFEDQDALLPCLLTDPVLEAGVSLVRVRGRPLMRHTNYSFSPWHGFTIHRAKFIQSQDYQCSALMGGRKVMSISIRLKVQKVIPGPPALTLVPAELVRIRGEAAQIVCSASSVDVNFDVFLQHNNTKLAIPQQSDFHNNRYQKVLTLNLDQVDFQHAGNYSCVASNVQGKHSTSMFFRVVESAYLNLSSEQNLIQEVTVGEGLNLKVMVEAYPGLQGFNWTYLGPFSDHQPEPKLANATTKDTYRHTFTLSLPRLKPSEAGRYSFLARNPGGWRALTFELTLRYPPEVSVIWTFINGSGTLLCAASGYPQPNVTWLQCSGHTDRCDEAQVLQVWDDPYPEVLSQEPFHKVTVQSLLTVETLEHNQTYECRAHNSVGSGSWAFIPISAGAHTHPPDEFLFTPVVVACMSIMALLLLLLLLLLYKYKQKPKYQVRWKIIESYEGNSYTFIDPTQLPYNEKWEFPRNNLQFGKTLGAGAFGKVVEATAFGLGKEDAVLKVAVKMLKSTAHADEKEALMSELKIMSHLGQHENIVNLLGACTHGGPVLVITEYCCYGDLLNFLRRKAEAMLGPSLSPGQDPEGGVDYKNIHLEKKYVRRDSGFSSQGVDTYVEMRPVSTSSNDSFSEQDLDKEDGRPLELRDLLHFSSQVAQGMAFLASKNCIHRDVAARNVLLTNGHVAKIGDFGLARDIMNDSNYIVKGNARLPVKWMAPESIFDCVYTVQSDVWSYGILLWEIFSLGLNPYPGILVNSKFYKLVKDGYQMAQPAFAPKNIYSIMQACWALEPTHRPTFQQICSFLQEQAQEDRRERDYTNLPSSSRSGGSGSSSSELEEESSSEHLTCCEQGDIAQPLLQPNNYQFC

Aurora kinase B = Aurora kinase B (Homo sapiens, UniProt Q96GD4); assay: Inhibition of aurora-B
Aurora kinase B, sequence (Q96GD4 whole entry): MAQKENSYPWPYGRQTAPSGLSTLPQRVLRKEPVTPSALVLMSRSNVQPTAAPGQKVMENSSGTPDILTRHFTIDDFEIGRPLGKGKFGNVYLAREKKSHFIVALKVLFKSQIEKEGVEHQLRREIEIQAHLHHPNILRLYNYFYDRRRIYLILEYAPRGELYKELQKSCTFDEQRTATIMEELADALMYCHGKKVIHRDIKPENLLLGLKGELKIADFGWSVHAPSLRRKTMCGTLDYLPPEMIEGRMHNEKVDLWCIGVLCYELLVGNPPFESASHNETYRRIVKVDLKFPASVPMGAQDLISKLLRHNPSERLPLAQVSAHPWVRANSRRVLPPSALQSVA

[6] = Chemical stability of the compound at pH 1; format: physicochemical; conditions: buffer
[7] = Oral bioavailability in rat; format: ADME, organism-based; conditions: in vivo
Mus musculus [8] = assay: Inhibition of PDGFRalpha phosphorylation in rat C6 cells xenografted in nude mouse at 3 mg/kg, po; format: functional, organism-based; set-up: dose 3 mg/kg; conditions: TDE = time-dependent effect
Mus musculus [9] = assay: Inhibition of PDGFRalpha phosphorylation in rat C6 cells xenografted in po dosed nude mouse after 6 hrs; format: functional, organism-based
[10] = Half life in iv dosed rat; format: ADME, organism-based; conditions: in vivo
[11] = Clearance in rat; format: ADME, organism-based; conditions: in vivo
[12] = biological target: Mast/stem cell growth factor receptor Kit (Homo sapiens) (UniProt P10721); assay: Inhibition of c-Kit
Mast/stem cell growth factor receptor Kit (Homo sapiens), sequence (P10721 whole entry): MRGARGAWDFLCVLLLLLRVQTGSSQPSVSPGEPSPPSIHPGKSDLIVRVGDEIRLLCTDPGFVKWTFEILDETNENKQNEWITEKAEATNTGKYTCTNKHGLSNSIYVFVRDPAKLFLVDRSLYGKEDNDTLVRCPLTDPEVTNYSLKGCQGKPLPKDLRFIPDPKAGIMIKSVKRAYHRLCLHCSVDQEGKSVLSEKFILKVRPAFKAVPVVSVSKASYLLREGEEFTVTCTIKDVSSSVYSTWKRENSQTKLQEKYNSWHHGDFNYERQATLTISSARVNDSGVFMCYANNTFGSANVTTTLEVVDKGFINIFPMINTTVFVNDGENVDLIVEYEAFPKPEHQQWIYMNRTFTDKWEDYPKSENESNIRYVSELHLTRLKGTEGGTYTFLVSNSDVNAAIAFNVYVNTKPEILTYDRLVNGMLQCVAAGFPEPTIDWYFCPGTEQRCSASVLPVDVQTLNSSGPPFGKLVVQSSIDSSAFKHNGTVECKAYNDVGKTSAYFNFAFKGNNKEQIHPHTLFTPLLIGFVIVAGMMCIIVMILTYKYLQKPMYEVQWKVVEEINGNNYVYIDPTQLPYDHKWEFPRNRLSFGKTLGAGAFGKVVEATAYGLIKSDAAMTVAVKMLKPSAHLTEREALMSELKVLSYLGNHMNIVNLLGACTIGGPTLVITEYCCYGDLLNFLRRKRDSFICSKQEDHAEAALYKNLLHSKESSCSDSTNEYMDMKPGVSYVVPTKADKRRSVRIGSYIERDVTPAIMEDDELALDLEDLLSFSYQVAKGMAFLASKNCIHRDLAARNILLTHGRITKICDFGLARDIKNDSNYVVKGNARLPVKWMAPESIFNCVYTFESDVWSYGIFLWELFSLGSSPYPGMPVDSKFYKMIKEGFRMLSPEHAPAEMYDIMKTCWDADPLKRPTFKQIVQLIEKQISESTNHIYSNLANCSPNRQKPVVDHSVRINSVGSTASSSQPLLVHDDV

| SMILES | IC50 [1] [nM] | IC50 [2] [nM] | inhibition [3] | IC50 [4] [nM] | IC50 [5] [nM] | IC50 (Aurora kinase B) [nM] | Stability [6] [days] | bioavailability [7] [%] | INH [3] [nM] | inhibition (Mus musculus [8]) | inhibition (Mus musculus [9]) | half-life [10] [min] | clearance [11] [mL/min/kg] | inhibition [12] |
| --- | --- | --- | --- | --- | --- | --- | --- | --- | --- | --- | --- | --- | --- | --- |
| COc1cccc(NC(=O)Cc2ccc(Nc3ncnc4cc(OC)c(OC)cc34)cc2)c1 | 175 | 10 | Active | > 60 | > 1000 | – | – | – | – | – | – | – | – | – |
| COc1cccc(NC(=O)Cn2cc(Nc3ncnc4cc(OC)c(OC)cc34)cn2)c1 | 25 | 10 | Active | > 20 | > 900 | > 10 | 0.1 | < 20 | – | – | – | – | – | – |
| COc1cccc(CNC(=O)c2ccc(Oc3ncnc4cc(OC)c(OC)cc34)cc2)c1 | 3060 | 700 | Active | > 400 | > 1000 | – | – | – | – | – | – | – | – | – |
| CCn1cc(NC(=O)Cn2cc(Oc3ncnc4cc(OC)c(OC)cc34)cn2)cn1 | 35 | 4 | Active | 4 | 200 | – | 0.1 | < 20 | – | – | – | – | – | – |
| COc1cccc(NC(=O)Cc2cccc(Oc3ncnc4cc(OC)c(OC)cc34)c2)c1 | 1010 | 300 | Active | > 1000 | > 1000 | – | – | – | – | – | – | – | – | – |
| COc1cccc(CC(=O)Nc2ccc(Oc3ncnc4cc(OC)c(OC)cc34)cc2)c1 | 209 | 4 | Active | 10 | 30 | – | – | – | – | – | – | – | – | – |
| CCc1cc(NC(=O)Cc2ccc(Oc3ncnc4cc(OC)c(OC)cc34)cc2)n[nH]1 | < 5 | 4 | Active | 5 | > 600 | – | – | – | – | – | – | – | – | – |
| COc1cc2ncnc(Nc3cnn(CC(=O)Nc4ccc(N(C)C)cc4)c3)c2cc1OC | 101 | 6 | Active | 4 | 600 | > 10 | 0.1 | < 20 | – | – | – | – | – | – |
| COc1cccc(NC(=O)Cn2cc(Oc3ncnc4cc(OCCN5CCCC5)c(OC)cc34)cn2)c1 | 7 | 1 | Active | 5 | 30 | – | 0.1 | < 20 | – | – | – | – | – | – |
| COCCOc1cc2ncnc(Oc3cnn(CC(=O)Nc4cccc(OC)c4)c3)c2cc1OC | 0.2 | 0.3 | Active | 2 | 8 | – | 0.1 | < 20 | – | – | – | – | – | – |
| COc1cccc(NC(=O)Cn2cc(Oc3ccnc4cc(OC)c(C#N)cc34)cn2)c1 | 282 | 2 | Active | 40 | 50 | – | 0.1 | < 20 | – | – | – | – | – | – |
| CCn1cc(NC(=O)Cc2ccc(Oc3ccnc4cc(OC)c(OC)cc34)cc2)cn1 | 12 | 0.4 | Active | 4 | 40 | – | – | – | – | – | – | – | – | – |
| COc1cccc(NC(=O)Cn2cc(Oc3ccnc4cc(OC)c(OC)cc34)cn2)c1 | 57 | 2 | Active | 20 | 40 | – | 0.1 | < 20 | – | – | – | – | – | – |
| COc1cccc(C(=O)NCc2ccc(Oc3ncnc4cc(OC)c(OC)cc34)cc2)c1 | 6140 | 300 | Active | > 1000 | > 1000 | – | – | – | – | – | – | – | – | – |
| COc1cccc(COc2ccc(Oc3ncnc4cc(OC)c(OC)cc34)cc2)c1 | 128 | 20 | Active | 20 | 300 | – | – | – | – | – | – | – | – | – |
| COc1cccc(NC(=O)Cn2cc(Oc3ncnc4cc(OC)cc(OC)c34)cn2)c1 | 30 | 2 | Active | 5 | 100 | – | 0.1 | < 20 | – | – | – | – | – | – |

| SMILES | IC50 [1] [nM] | IC50 [2] [nM] | inhibition [3] | IC50 [4] [nM] | IC50 [5] [nM] | IC50 (Aurora kinase B) [nM] | Stability [6] [days] | bioavailability [7] [%] | INH [3] [nM] | inhibition (Mus musculus [8]) | inhibition (Mus musculus [9]) | half-life [10] [min] | clearance [11] [mL/min/kg] | inhibition [12] |
| --- | --- | --- | --- | --- | --- | --- | --- | --- | --- | --- | --- | --- | --- | --- |
| COc1cc2ncnc(Oc3ccc(CC(=O)Nc4cnn(C(C)C)c4)cc3)c2cc1OC | – | – | – | – | – | – | – | – | 2 | tde | Dose-dependent effect | – | – | – |
| CCn1ccc(NC(=O)Cc2ccc(Oc3ncnc4cc(OC)c(OC)cc34)cc2)n1 | 172 | 10 | Active | 20 | > 1000 | – | – | – | – | – | – | – | – | – |
| COc1cccc(NC(=O)Cc2ccc(Oc3ncnc4cc(OC)c(OC)cc34)cc2)c1 | 8 | 0.9 | Active | 7 | 300 | – | – | – | – | – | – | – | – | – |
| COc1cc2ncnc(Oc3ccc(CC(=O)Nc4ccc(N(C)C)cn4)cc3)c2cc1OC | 22 | 5 | Active | 9 | 600 | – | – | – | – | – | – | – | – | – |
| COc1cc2ncnc(Oc3ccc(CC(=O)Nc4cn[nH]c4)cc3)c2cc1OC | > 10000 | > 2000 | Active | > 800 | > 1000 | – | – | – | – | – | – | – | – | – |
| COc1cccc(NC(=O)Cn2cc(Oc3ncnc4cc(OC)c(OCCN5CCCCC5)cc34)cn2)c1 | 31 | 3 | Active | 10 | 400 | – | 0.1 | < 20 | – | – | – | 24 | 75 | – |
| CCn1cc(NC(=O)Cc2cc(Oc3ccnc4cc(OC)c(OC)cc34)n[nH]2)cn1 | > 10000 | > 1000 | Active | > 1000 | > 1000 | – | – | – | – | – | – | – | – | inactive |
| CCn1cc(NC(=O)Cc2ccc(Oc3ncnc4cc(OC)c(OC)cc34)cc2)cn1 | 29 | 3 | Active | 10 | > 800 | – | – | – | – | – | – | – | – | – |
| COCCOc1cc2c(Oc3cnn(CC(=O)Nc4cccc(OC)c4)c3)ncnc2cc1OC | < 5 | 2 | Active | 3 | 90 | – | 0.1 | < 20 | – | – | – | – | – | – |
| COc1cc2ncnc(Nc3cnn(CC(=O)Nc4ccc(N(C)C)cn4)c3)c2cc1OC | 453 | > 200 | Active | 10 | > 1000 | – | 0.1 | < 20 | – | – | – | – | – | – |
| COc1cccc(S(=O)(=O)NCc2ccc(Oc3ncnc4cc(OC)c(OC)cc34)cc2)c1 | > 10000 | > 1000 | Active | > 1000 | > 1000 | – | – | – | – | – | – | – | – | – |
| COc1cc2ncnc(Nc3cnn(CC(=O)Nc4cccc(F)c4)c3)c2cc1OC | 51 | 10 | Active | 4 | > 1000 | < 0.2 | 0.1 | < 20 | – | – | – | – | – | – |
| COc1cccc(NC(=O)Cn2cc(Oc3ncnc4cc(OC)c(OC)cc34)cn2)c1 | 0.4 | 0.8 | Active | 2 | 10 | – | 0.1 | < 20 | – | – | – | – | – | – |
| COc1cc2ncnc(Oc3ccc(CC(=O)Nc4cnn(C)c4)cc3)c2cc1OC | 667 | 40 | Active | 80 | > 1000 | – | – | – | – | – | – | – | – | – |
| COc1cc2ncnc(Oc3cnn(CC(=O)Nc4ccc(N(C)C)cn4)c3)c2cc1OC | 39 | 3 | Active | 3 | 20 | – | 0.1 | < 20 | – | – | – | – | – | – |
| COc1cccc(NC(=O)NCc2ccc(Oc3ncnc4cc(OC)c(OC)cc34)cc2)c1 | 177 | 9 | Active | 8 | > 1000 | – | – | – | – | – | – | – | – | – |
